Results on 66 compounds are retold here after PubChem BioAssay AID492955 (The Scripps Research Institute Molecular Screening Center, 2010).

The test has as its system P. falciparum 3D7 in RBCs, 3H-hypoxanthine uptake, 48 h. As to the kind of experiment: single-dose blood-stage antimalarial activity – cell-based, radiolabel, RBCs, powder samples, M17LAP inhibitor project, late-stage follow-up (AID 492955). The following applies: at 10 µM; stronger effect = higher value.

SMILES strings stand for the structures. Active and inactive are the calls of the source.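 How the source made its calls: active means at 10 µM dose, any replicate showing 50% or greater reduction of parasite growth in red cells; inactive means the rest.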

With `O=C(CSc1nc(O)cc(=O)n1-c1ccccc1)Nc1ccc2c3c(cccc13)CC2`, the inhibition is 3% (inactive).
Next, `CCOc1ccc(NC(=O)Nc2ccc3nccnc3c2)cc1`: 16% (inactive); `Cc1ccc(Nc2nnc(SC3CCOC3=O)s2)cc1` (stereo unspecified): 4% (inactive); `COc1ccc2nc(SCC(=O)Nc3cc(OC)c(OC)cc3C(=O)O)c(C)cc2c1`: 1.44% (inactive).
For `COc1cc(NC(=O)CSc2nnc3c(C)cc4cc(C)cc(C)c4n23)c(C(=O)O)cc1OC` the value was 7.56% (inactive); for `O=c1cc(-c2ccc(Cl)c(Cl)c2)[nH][nH]1`, 2.67% (inactive); for `C=CCn1c(SCC(=O)Nc2cccc3ccccc23)nc(O)c(CC)c1=O`, 8.22% (inactive).
Next, `Cc1cc(C(=O)COC(=O)c2ccc[nH]c2=O)c(C)n1-c1ccccc1`: 6.67% (inactive); `Cc1ccc(-c2cccc(NC(=O)[C@@H]3C4C=CC(C4)[C@@H]3C(=O)O)c2)o1` (stereo partly specified): 8.83% (inactive); `S=c1nc(-c2ccccc2Br)[nH][nH]1`: 0% (inactive).
As to `CCn1c2ccccc2c2cc(NC(=O)CSc3nccc(=O)[nH]3)ccc21`, the inhibition was 2.67% (inactive).
Next, `N#Cc1c(NC(=O)[C@@H]2C3C=CC(C3)[C@@H]2C(=O)O)sc2c1CCCCC2` (stereo partly specified): 0% (inactive).
Next, `COC(=O)c1c(-c2cc(C)ccc2C)csc1NC(=O)[C@@H]1CC=CC[C@@H]1C(=O)O`: 3.33% (inactive); `O=C(Nc1ccc(Cl)cc1)Nc1cccc(C(=O)O)c1`: 0% (inactive).
`CC1=Nc2ccc(C)cc2/C1=C/c1c(N)n2c(S(=O)(=O)C(C)C)nsc2nc1=O`: the inhibition was 19.2% (inactive).
Next, `COc1ccc(C(C)(C)C)cc1NC(=O)[C@H]1CC=CC[C@H]1C(=O)O`: 0% (inactive); `Cc1cc(C(=O)COC(=O)c2ccc[nH]c2=O)c(C)n1-c1ccc(F)cc1`: 0% (inactive); `CCN(CC)c1ccc(NC(=O)CSc2nc(C)cc(=O)[nH]2)cc1`: 3.5% (inactive).
For `CCc1cc2cc3c(cc2nc1SCC(=O)Nc1cc(OC)c(OC)cc1C(=O)O)OCO3` the value was 0% (inactive).
Regarding `CCc1nnc(NC(=O)CSc2nnc(-c3ccc(NS(=O)(=O)c4ccccc4)cc3)o2)s1`, the inhibition is 2.33% (inactive).
For the compound `COc1ccc(NC(=O)CSC2=NC(=O)CC(C)=N2)cc1`, the inhibition is 0% (inactive).
For `CCOC(=O)c1c(NC(=O)[C@@H]2C3CCC(O3)[C@@H]2C(=O)O)sc(C)c1-c1ccc(C)cc1` (stereo partly specified) the value was 0% (inactive).
Take `Cc1ccc(-c2c(C)sc(NC(=O)[C@@H]3C4CCC(O4)[C@@H]3C(=O)O)c2C(=O)OC(C)C)cc1` (stereo partly specified): the inhibition was 6.33% (inactive).
For `CCc1ccc(NC(=O)[C@H]2CC=CC[C@H]2C(=O)O)cc1` the value was 0% (inactive).
`COC(=O)c1c(-c2ccc(C)cc2)csc1NC(=O)[C@H]1CC=CC[C@H]1C(=O)O`: the inhibition is 0% (inactive).
Next, `O=C(O)CCCCCNC(=O)Nc1ccc2c(c1)OCCO2`: 6.33% (inactive); `Cc1ccc(-n2c(C)cc(C(=O)COC(=O)c3ccc[nH]c3=O)c2C)cc1`: 20% (inactive).
As to `COc1ccc(NC(=O)CSc2nc(O)cc(=O)n2C)cc1`, the inhibition is 3.67% (inactive).
For `CCCCc1c(O)nc(SCC(=O)Nc2ccc3c(c2)CCC3)[nH]c1=O` the value was 7.67% (inactive).
Next, `COc1cc(NC(=O)CSc2nc3cc(C)ccc3cc2C)c(C(=O)O)cc1OC`: 5.17% (inactive); `CC(=O)NS(=O)(=O)c1ccc(N=c2ssc3c2-c2ccc(C)cc2NC3(C)C)cc1`: 4.5% (inactive); `CC(C)c1ccc(NC(=O)[C@H]2CCCC[C@H]2C(=O)O)cc1`: 5.67% (inactive).
Next, `COc1ccc(-c2cc(=O)[nH][nH]2)cc1OC`: 3.83% (inactive); `COC(=O)c1cccc(NC(=O)CSc2nc(C)cc(=O)[nH]2)c1`: 9.78% (inactive).
`CCOC(=O)c1c(-c2ccc(C)cc2)csc1NC(=O)[C@H]1CC=CC[C@H]1C(=O)O`: the inhibition was 10.7% (inactive).
For `CCc1cc2ccc(C)cc2nc1SCC(=O)Nc1cc(OC)c(OC)cc1C(=O)O` the value was 6.44% (inactive); for `CCc1cc2ccccc2nc1SCC(=O)Nc1cc(OC)c(OC)cc1C(=O)O`, 2.78% (inactive); for `COC(=O)c1c(-c2ccco2)csc1NC(=O)[C@H]1CC=CC[C@H]1C(=O)O`, 0% (inactive).
Next, `CCOC(=O)c1c(NC(=O)[C@@H]2C3C=CC(C3)[C@@H]2C(=O)O)sc2c1CCC(CC)C2` (stereo partly specified): 5% (inactive); `Cc1ccc(Nc2nnc(SCc3cc(=O)n4ccsc4n3)s2)c(C)c1`: 18.4% (inactive).
Next, `S=c1nc(-c2cccc(Cl)c2)[nH][nH]1`: 0% (inactive).
Consider `COC(=O)c1c(NC(=O)[C@H]2CC=CC[C@H]2C(=O)O)sc(C)c1C`, for which the inhibition is 1.33% (inactive).
`N#Cc1c(-c2ccccc2)nc(SCC(=O)N2c3ccccc3Sc3ccccc32)[nH]c1=O`: the inhibition is 1% (inactive).
Next, `Cc1ccc(NC(=O)CSc2nnc(C)c(=O)[nH]2)cc1C`: 15.8% (inactive); `CCCCOc1ccc(CC(=O)NO)cc1`: 81.2%.
Next, `CCOc1cccc(-c2cc(=O)[nH][nH]2)c1`: 2.83% (inactive).
Regarding `CCOc1ccc(NC(=O)Nc2cccs2)cc1`, the inhibition is 0% (inactive).
`COc1cc(NC(=O)CSc2nc3c(C)ccc(C)c3cc2C)c(C(=O)O)cc1OC`: the inhibition was 5% (inactive).
Next, `O=C(CSc1nnc(Nc2ccccc2)s1)NN1C(=O)NC2(CCCCC2)C1=O`: 12.9% (inactive); `COC(=O)c1c(NC(=O)[C@H]2CCCC[C@H]2C(=O)O)sc2c1CCCCC2`: 3.33% (inactive).
Next, `COc1ccc(-c2cc(=O)[nH][nH]2)cc1`: 0% (inactive).
Next, `O=C(O)Cc1ccc(NC(=O)Nc2ccc(Br)cc2)cc1`: 1.67% (inactive); `CCc1ccc(Nc2nnc(SC3CCOC3=O)s2)cc1` (stereo unspecified): 0% (inactive); `O=C(CSc1nccc(=O)[nH]1)Nc1ccc(Br)c(Cl)c1`: 8.67% (inactive).
For `O=C(Nc1cccc(Cl)c1)[C@H]1CC=CC[C@H]1C(=O)O`, the inhibition was 0.333% (inactive).
Next, `O=C(Nc1cc(Cl)ccc1Cl)[C@H]1CC=CC[C@H]1C(=O)O`: 1.33% (inactive); `O=c1cc(-c2ccc(F)cc2)[nH][nH]1`: 5.67% (inactive); `CCc1cc2cc(OC)ccc2nc1SCC(=O)Nc1cc(OC)c(OC)cc1C(=O)O`: 2.33% (inactive).
In the case of `CCOC(=O)c1c(-c2cccc(C)c2)csc1NC(=O)[C@H]1CC=CC[C@H]1C(=O)O`, the inhibition was 1.83% (inactive).
Next, `COc1cc(NC(=O)CSc2ncnc3scc(-c4ccccc4)c23)c(C(=O)O)cc1OC`: 6.83% (inactive).
Regarding `Cc1noc(NS(=O)(=O)c2ccc(NC(=O)CSc3nnc4c(n3)[nH]c3ccccc34)cc2)c1C`, the inhibition is 1.67% (inactive).
Next, `CC1=C(C)C[C@@H](C(=O)O)[C@@H](C(=O)Nc2cccc([N+](=O)[O-])c2)C1`: 11.2% (inactive); `Cn1c(SCC(=O)Nc2cccc3ccccc23)nc(O)cc1=O`: 2.5% (inactive); `Cc1ccc(-n2c(C)cc(C(=O)COC(=O)c3ccc[nH]c3=O)c2C)cc1C`: 3.17% (inactive).
Next, `CN1C(=O)/C(=C/c2ccc(-c3ccccc3[N+](=O)[O-])o2)SC1=Nc1ccc(Cl)c(C(=O)O)c1`: 0% (inactive); `COc1cc(NC(=O)CSc2nc3ccccc3cc2C)c(C(=O)O)cc1OC`: 5.89% (inactive).

By inhibition is commonly meant the share of the control response that was lost under treatment.
